Laboratory results published in US20100029554A1, “Composition and Methods for Treatment of Congestive Heart Failure” (Amylin Pharmaceuticals, Inc., priority 2006, published 2010).
Where no end group is shown, it is not given here.

What was measured:
[1] = test system: GLP-1 cyclase, rat thyroid carcinoma cells (6-23); assay: GLP-1 Cyclase (6-23) assay; format: cell-based; details: cAMP, 6-23 cells; values marked **
Protocol: (§1) Five μl of serially diluted peptides are transferred to the 384-well assay plate. Rat thyroid carcinoma cells (6-23) are detached from a tissue culture flask with Versene and washed once in buffer. Then 6-23 cells are resusupended in buffer at 3.0×10^6 cells/ml. Then 10 μl cells (3.0×10^4 cells) are added to all wells of the assay plate and cells are stimulated at room temperature in the dark for 30 minutes. The reaction is terminated with 10 μl of lysis buffer and incubated at room temperature for 4 hrs in the dark. cAMP content is measured using Perkin Elmer AlphaScreen™ cAMP assay kit and results are read on a Perkin Elmer Fusion fluorometer. The assay is completed in 384-well plates at 25 μl volumes.

[2] = test system: GLP/GIP/CT cyclase, RIN-m5F cells; assay: GLP/GIP/CT Cyclase (RIN) assay; format: cell-based, rat; details: cAMP, values without **
Protocol: GLP/GIP/CT Cyclase (RIN) Assay
as §1, with “Rat pancreas insulinoma” for “Rat thyroid carcinoma”, “cells (RIN-m5F)” for “cells (6-23)”, “Then RIN-m5F” for “Then 6-23”, “at 2.5×10^6” for “at 3.0×10^6”, “cells (2.5×10^4” for “cells (3.0×10^4”, “25 microliter” for “25 μl”

NH/Swiss mice = assay: Glucose lowering assay; format: in vivo, mouse; details: IP
Method in brief: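 Female NH/Swiss mice, food-restricted 2 h beforehand, received test sample IP at 1 or 2 nmol/kg or vehicle (10% DMSO saline). Tail blood glucose (glucose oxidase biosensor) was measured pre-dose and at 30-240 min, expressed as percent change versus vehicle; ANOVA with Dunnett's post test.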

Plasma stability = format: in vitro ADME; details: 20 μg/mL in plasma, 37° C., 0-5 hours
Protocol: To assess stability, the compound of interest is spiked into plasma at a concentration of 20 μg/mL. It is incubated at 37° C. for 0, 1, 2 3, 4, 5 hours in triplicate. At each time point, MeOH is added to a 96 well microtiter plate and then sample is added in a ratio of 1 part sample to 4 parts MeOH to quench the digestion reaction. Samples are mixed with multi-channel pipette or liquid handler. The plate is then centrifuged for 10 minutes and placed in an autosampler kept at 10° C. Samples are then injected into a mass spectrometer (API 3000, Applied Biosystems) equipped with an autosampler (Leap HTC Pal) and HPLC pumps (Shimadzu LC-10ADVP).

[3] = molecular target: T1, GLP-1 receptors (RINm5f cell membranes) (Rattus norvegicus, UniProt P32301); assay: Receptor binding assay, RBA GLP (RIN); details: [125I] human GLP-1 displacement
T1 construct: RINm5f cells expressing endogenous GLP-1 receptors; endogenous in cells; host or cells: RINm5f cell membranes
T1 sequence (P32301 22-463): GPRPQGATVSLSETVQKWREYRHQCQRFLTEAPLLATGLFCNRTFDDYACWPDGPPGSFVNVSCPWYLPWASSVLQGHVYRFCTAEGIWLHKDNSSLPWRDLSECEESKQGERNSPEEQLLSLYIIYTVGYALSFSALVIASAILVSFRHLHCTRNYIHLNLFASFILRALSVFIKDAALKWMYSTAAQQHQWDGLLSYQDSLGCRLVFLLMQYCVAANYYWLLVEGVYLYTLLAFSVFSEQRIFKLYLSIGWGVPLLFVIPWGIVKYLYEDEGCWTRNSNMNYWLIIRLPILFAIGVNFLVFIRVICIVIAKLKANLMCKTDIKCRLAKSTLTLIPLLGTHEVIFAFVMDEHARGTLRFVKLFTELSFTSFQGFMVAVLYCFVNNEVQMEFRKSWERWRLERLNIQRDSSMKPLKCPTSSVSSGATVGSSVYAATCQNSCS
From the text: The well contents are harvested onto 96 well glass fiber plates using a Perkin Elmer plate harvestor. Dried glass fiber plates are combined with scintillant and counted on a Perkin Elmer scintillation counter.

NIH:Swiss mice = assay: Food intake assay; format: in vivo, mouse; details: IP, dose 10 nmol/kg
Protocol: All mice (NIH:Swiss mice) are housed in a stable environment of 22 (±2)° C., 60 (±10)% humidity and a 12:12 light:dark cycle; with lights on at 0300. Mice are housed in groups of three in standard cages with ad libitum access to food (Teklad: LM 485; Madison, Wis.) and water except as noted, for at least two weeks before the experiments.
All experiments are conducted between the hours of 0700 and 0900. The mice are food deprived (food removed at 1530 hr from all animals on day prior to experiment). […] The food pellet is weighed at 30-minute, 1-hr, and 2-hr intervals to determine the amount of food eaten.
Significant test sample effects are identified by ANOVA (p<0.05). Where a significicant difference exists, test means are compared to the control mean using Dunnett's test. One-way ANOVA with Dunnett's post test is performed using GraphPad Prism version 3.01 for Windows, GraphPad Software, San Diego Calif.

Molecule | EC50 [1] [nM] | EC50 [2] [nM] | GLU LOWERING AUC240 @2 nmol/kg (NH/Swiss mice; 2 nmol/kg, change in blood glucose relative to vehicle) [%] | plasma stability as compared to native GLP-1 (Plasma stability) | IC50 [3] [nM] | plasma stability as compared to native GLP-1 (Plasma stability; second, narrower list of b152) | FOOD INTAKE at 60 min (NIH:Swiss mice) [%] | GLU LOWERING AUC240 @1 nmol/kg (NH/Swiss mice; 1 nmol/kg) [%]
CC[C@H](C)[C@H](NC(=O)[C@H](Cc1ccccc1)NC(=O)[C@H](CC(C)C)NC(=O)[C@H](CCCNC(=N)N)NC(=O)[C@@H](NC(=O)[C@H](C)NC(=O)[C@H](CCC(=O)O)NC(=O)[C@H](CCC(=O)O)NC(=O)[C@H](CCC(=O)O)NC(=O)[C@H](CC(C)C)NC(=O)[C@H](Cc1ccc(O)cc1)NC(=O)[C@H](CCC(=O)O)NC(=O)[C@@H](NC(=O)[C@@H](NC(=O)[C@H](CC(=O)O)NC(=O)[C@H](CC(N)=O)NC(=O)[C@@H](NC(=O)[C@H](Cc1ccc(O)cc1)NC(=O)[C@@H](NC(=O)CNC(=O)[C@H](CCC(=O)O)NC(=O)CNC(=O)[C@@H](N)Cc1c[nH]cn1)[C@@H](C)O)[C@@H](C)O)C(C)C)[C@@H](C)O)C(C)C)C(=O)N[C@@H](CCC(=O)O)C(=O)N[C@@H](Cc1c[nH]c2ccccc12)C(=O)N[C@@H](CC(C)C)C(=O)N[C@@H](CCCCN)C(=O)N[C@@H](CCC(N)=O)C(=O)NCC(=O)NCC(=O)N1CCC[C@H]1C(=O)N[C@@H](CO)C(=O)N[C@@H](CO)C(=O)NCC(=O)N[C@@H](C)C(=O)N1CCC[C@H]1C(=O)N1CCC[C@H]1C(=O)N1CCC[C@H]1C(=O)N[C@@H](CO)C(N)=O [Cmpd 5130] | 0.0544 | 0.89 | −22 | increased plasma stability |  |  |  | 
HGEGTFTSDLVKILEAEAVRKFIEFLKNGGPSSGAPPPS-NH2 [Cmpd 5529] | 0.388 |  |  |  |  |  |  | 
CC[C@H](C)[C@H](NC(=O)[C@@H]1CCCN1C(=O)[C@@H](NC(=O)CNC(=O)CNC(=O)CNC(=O)[C@H](CCCNC(=N)N)NC(=O)CNC(=O)[C@H](CCCCN)NC(=O)[C@@H](NC(=O)[C@H](CC(C)C)NC(=O)[C@H](Cc1c[nH]c2ccccc12)NC(=O)[C@H](C)NC(=O)[C@@H](NC(=O)[C@H](Cc1ccccc1)NC(=O)[C@H](CCC(=O)O)NC(=O)[C@H](CCCCN)NC(=O)[C@H](C)NC(=O)[C@H](C)NC(=O)[C@H](CCC(N)=O)NC(=O)CNC(=O)[C@H](CCC(=O)O)NC(=O)[C@H](CC(C)C)NC(=O)[C@H](Cc1ccc(O)cc1)NC(=O)[C@H](CO)NC(=O)[C@H](CO)NC(=O)[C@@H](NC(=O)[C@H](CC(=O)O)NC(=O)[C@H](CO)NC(=O)[C@@H](NC(=O)[C@H](Cc1ccccc1)NC(=O)[C@@H](NC(=O)CNC(=O)[C@H](CCC(=O)O)NC(=O)[C@H](C)NC(=O)[C@@H](N)Cc1c[nH]cn1)[C@@H](C)O)[C@@H](C)O)C(C)C)[C@@H](C)CC)C(C)C)[C@@H](C)CC)C(N)=O [Cmpd 4957] |  | 0.51 |  |  | 0.1 |  |  | 
HGEGTFTSDVTEYLEEEAVRLFIEWLKQGGPSSGAPPPS-NH2 [Cmpd 5129] |  | 1.09 |  | increased plasma stability | 3 | increased plasma stability |  | 
CC[C@H](C)[C@H](NC(=O)[C@H](Cc1ccccc1)NC(=O)[C@H](CCC(=O)O)NC(=O)[C@H](CCCCN)NC(=O)[C@H](C)NC(=O)[C@H](C)NC(=O)[C@H](CCCCN)NC(=O)[C@H](CCC(=O)O)NC(=O)[C@H](CCC(=O)O)NC(=O)[C@H](CC(C)C)NC(=O)[C@H](CCC(N)=O)NC(=O)[C@H](CCCCN)NC(=O)[C@H](CO)NC(=O)[C@H](CC(C)C)NC(=O)[C@H](CC(=O)O)NC(=O)[C@H](CO)NC(=O)[C@@H](NC(=O)[C@H](Cc1ccccc1)NC(=O)[C@@H](NC(=O)CNC(=O)[C@H](CCC(=O)O)NC(=O)CNC(=O)[C@@H](N)Cc1c[nH]cn1)[C@@H](C)O)[C@@H](C)O)C(=O)N[C@@H](CCC(=O)O)C(=O)N[C@@H](Cc1c[nH]c2ccccc12)C(=O)N[C@@H](CC(C)C)C(=O)N[C@@H](CCCCN)C(=O)N[C@@H](CCC(N)=O)C(=O)NCC(=O)NCC(=O)N1CCC[C@H]1C(=O)N[C@@H](CO)C(=O)N[C@@H](CO)C(=O)NCC(=O)N[C@@H](C)C(=O)N1CCC[C@H]1C(=O)N1CCC[C@H]1C(=O)N1CCC[C@H]1C(=O)N[C@@H](CO)C(N)=O [Cmpd 5100] |  |  |  | increased plasma stability | 1.8 |  | −66 | −16
